The supplement of paper PMC4862054

Experiments:
Conditions in all cases: 72 h
SK-BR-3 [1] = test system: SK-BR-3
Procedure, shortened: (§1)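 Compound dissolved in 5 µl medium was placed in 384-well plates before 20 µl of breast cancer cell suspension was added, and the plates were incubated for 72 h. Cells then received 2.5 µl CellTiter-Blue for 2 h at 37 °C, and fluorescence was read at 560/590 nm. EC50 values come from percent-inhibition dose-response fits that were censored at the highest concentration, with plates normalised to vehicle and a positive kill control and rows with a zero drug sensitivity score excluded.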

MDA-MB-468 [2] = test system: MDA-MB-468
Procedure, shortened: as §1

MDA-MB-436 [3] = test system: MDA-MB-436
Procedure, shortened: as §1

HCC1599 [4] = test system: HCC1599
Procedure, shortened: as §1

BT-474 [5] = test system: BT-474
Procedure, shortened: as §1

CAL-148 [6] = test system: CAL-148
Procedure, shortened: (§2)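 In this assay, breast cancer cell lines spent 72 h with compound at 5 concentrations in 10-fold steps over a compound-specific 10,000-fold range. The first readout was cell death by CellTox Green fluorescence, and the second was viability by CellTiter-Glo luminescence, each normalised per plate to 0.1 % DMSO and a positive kill control. EC50 came from the dose-response curves, censored at the top concentration.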

SK-BR-3 [7] = test system: SK-BR-3; remark: listed apart in the source
Procedure, shortened: as §2

CAL-51 [8] = test system: CAL-51
Procedure, shortened: as §2

CAL-120 [9] = test system: CAL-120
Procedure, shortened: as §2

CAL-85-1 [10] = test system: CAL-85-1
Procedure, shortened: as §2

MDA-MB-436 [11] = test system: MDA-MB-436; remark: listed apart in the source
Procedure, shortened: as §2

MCF-10A = test system: MCF-10A
Procedure, shortened: as §2

HDQ-P1 [12] = test system: HDQ-P1
Procedure, shortened: as §2

CAL-85-1 [13] = test system: CAL-85-1; remark: listed apart in the source
Procedure, shortened: as §1

HDQ-P1 [14] = test system: HDQ-P1; remark: listed apart in the source
Procedure, shortened: as §1

CAL-51 [15] = test system: CAL-51; remark: listed apart in the source
Protocol: (§3)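 Drug sensitivity and resistance testing (DSRT) of breast cancer cell lines in 384-well plates, 5 concentrations in 10-fold dilutions over a compound-specific 10,000-fold range. After 72 h, cytotoxicity was read by CellTox Green fluorescence and viability by CellTiter-Glo luminescence (multiplexed), normalised to DMSO and benzethonium chloride controls. EC50 is the inflection point of the fitted dose-response curve (bottom asymptote free, so it can be relative for partial curves) and is censored at the highest tested concentration. Rows with DSS 0 (no meaningful response) were excluded.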

CAL-85-1 [16] = test system: CAL-85-1; remark: listed apart in the source
Protocol: as §3

BT-549 [17] = test system: BT-549
Procedure, shortened: as §2

MDA-MB-231 [18] = test system: MDA-MB-231
Procedure, shortened: as §2

Hs578T [19] = test system: Hs578T
Procedure, shortened: as §2

MDA-MB-468 [20] = test system: MDA-MB-468; remark: listed apart in the source
Procedure, shortened: as §2

HCC1937 [21] = test system: HCC1937
Procedure, shortened: as §2

MDA-MB-453 [22] = test system: MDA-MB-453
Procedure, shortened: as §2

HCC1599 [23] = test system: HCC1599; remark: listed apart in the source
Procedure, shortened: as §2

HCC1143 [24] = test system: HCC1143
Procedure, shortened: as §2

BT-474 [25] = test system: BT-474; remark: listed apart in the source
Procedure, shortened: as §2

MDA-MB-231 [26] = test system: MDA-MB-231; remark: listed apart in the source
Protocol: as §3

Hs578T [27] = test system: Hs578T; remark: listed apart in the source
Protocol: as §3

MDA-MB-468 [28] = test system: MDA-MB-468; remark: listed apart in the source
Protocol: as §3

MFM-223 [29] = test system: MFM-223
Procedure, shortened: as §1

BT-549 [30] = test system: BT-549; remark: listed apart in the source
Procedure, shortened: as §1

Hs578T [31] = test system: Hs578T; remark: listed apart in the source
Procedure, shortened: as §1

HCC1143 [32] = test system: HCC1143; remark: listed apart in the source
Procedure, shortened: as §1

MFM-223 [33] = test system: MFM-223; remark: listed apart in the source
Procedure, shortened: as §2

DU-4475 [34] = test system: DU-4475
Procedure, shortened: as §2

CAL-51 [35] = test system: CAL-51; remark: listed apart in the source
Procedure, shortened: as §1

DU-4475 [36] = test system: DU-4475; remark: listed apart in the source
Procedure, shortened: as §1

MFM-223 [37] = test system: MFM-223; remark: listed apart in the source
Protocol: as §3

BT-549 [38] = test system: BT-549; remark: listed apart in the source
Protocol: as §3

CAL-148 [39] = test system: CAL-148; remark: listed apart in the source
Protocol: as §3

DU-4475 [40] = test system: DU-4475; remark: listed apart in the source
Protocol: as §3

CAL-120 [41] = test system: CAL-120; remark: listed apart in the source
Protocol: as §3

HCC1937 [42] = test system: HCC1937; remark: listed apart in the source
Protocol: as §3

MDA-MB-453 [43] = test system: MDA-MB-453; remark: listed apart in the source
Protocol: as §3

HCC1143 [44] = test system: HCC1143; remark: listed apart in the source
Protocol: as §3

BT-474 [45] = test system: BT-474; remark: listed apart in the source
Protocol: as §3

Row | EC50, CellTiter-Blue viability (SK-BR-3 [1]) [nM] | EC50, CellTiter-Blue viability (MDA-MB-468 [2]) [nM] | EC50, CellTiter-Blue viability (MDA-MB-436 [3]) [nM] | EC50, CellTiter-Blue viability (BT-474 [5]) [nM] | EC50, CellTiter-Glo (SK-BR-3 [7]) [nM] | EC50, CellTiter-Glo (MDA-MB-436 [11]) [nM] | EC50, CellTiter-Glo (BT-549 [17]) [nM] | EC50, CellTiter-Glo (MDA-MB-468 [20]) [nM] | EC50, CellTiter-Glo (HCC1599 [23]) [nM] | EC50, CellTiter-Glo (BT-474 [25]) [nM] | EC50, CellTiter-Blue viability (BT-549 [30]) [nM] | EC50, CellTiter-Blue viability (HCC1143 [32]) [nM] | Structure (SMILES) | EC50, CellTiter-Glo (CAL-51 [8]) [nM] | EC50, CellTiter-Glo (CAL-120 [9]) [nM] | EC50, CellTiter-Glo (CAL-85-1 [10]) [nM] | EC50, CellTiter-Glo (HDQ-P1 [12]) [nM] | EC50, CellTiter-Blue viability (HDQ-P1 [14]) [nM] | EC50, CellTox Green (CAL-51 [15]) [nM] | EC50, CellTox Green (CAL-85-1 [16]) [nM] | EC50, CellTiter-Blue viability (Hs578T [31]) [nM] | further results
1 | 4990 | 1510 | 840 | 1750 | 3440 | 7110 |  |  |  |  |  |  | C#Cc1cccc(Nc2ncnc3cc(OCCOC)c(OCCOC)cc23)c1 [Erlotinib] | 1130 | 9090 | 761 | 28.7 | 90.2 | 3160 | 1590 |  | EC50, CellTiter-Blue viability (HCC1599 [4]): 103 nM; EC50, CellTiter-Glo (CAL-148 [6]): 881 nM; EC50, CellTiter-Glo (MCF-10A): 96 nM; EC50, CellTiter-Blue viability (CAL-85-1 [13]): 754 nM
2 |  |  |  |  | 458 | 237 | 131 | 596 | 236 | 233 |  |  | NC(=O)Nc1cc(-c2cccc(F)c2)sc1C(=O)N[C@H]1CCCNC1 [AZD7762] | 707 | 255 | 112 | 570 |  | 500 | 75.8 |  | EC50, CellTiter-Glo (MDA-MB-231 [18]): 193 nM; EC50, CellTiter-Glo (Hs578T [19]): 467 nM; EC50, CellTiter-Glo (HCC1937 [21]): 593 nM; EC50, CellTiter-Glo (MDA-MB-453 [22]): 672 nM; EC50, CellTiter-Glo (MCF-10A): 499 nM; EC50, CellTiter-Glo (HCC1143 [24]): 361 nM; EC50, CellTox Green (MDA-MB-231 [26]): 745 nM; EC50, CellTox Green (Hs578T [27]): 2.65 nM; EC50, CellTox Green (MDA-MB-468 [28]): 26.5 nM
3 |  |  | 30 |  |  | 137 | 377 | 142 |  | 692 | 4.14 | 1.43 | Cn1c(Nc2ccc(C(F)(F)F)cc2)nc2cc(Oc3ccnc(-c4ncc(C(F)(F)F)[nH]4)c3)ccc21 [RAF265] |  | 97.2 | 827 | 108 | 82.3 |  | 139 | 196 | EC50, CellTiter-Blue viability (MFM-223 [29]): 673 nM; EC50, CellTiter-Glo (MFM-223 [33]): 291 nM; EC50, CellTiter-Glo (Hs578T [19]): 72.4 nM; EC50, CellTiter-Glo (HCC1937 [21]): 163 nM; EC50, CellTiter-Glo (DU-4475 [34]): 193 nM; EC50, CellTiter-Blue viability (CAL-51 [35]): 915 nM; EC50, CellTiter-Blue viability (DU-4475 [36]): 328 nM; EC50, CellTox Green (MFM-223 [37]): 600 nM; EC50, CellTox Green (BT-549 [38]): 581 nM
4 |  |  |  |  |  |  |  |  |  |  |  |  | CC(C)Cn1cnc2c(N)nc3ccccc3c21 [Imiquimod] |  |  |  |  |  |  |  |  | EC50, CellTox Green (BT-549 [38]): > 2500 nM
5 | 1130 | 1410 | 4580 | 10800 |  |  |  |  |  |  | 18300 | > 40000 | N[C@@H](CSC(c1ccccc1)(c1ccccc1)c1ccccc1)C(=O)O [S-trityl-L-cysteine] |  |  |  |  |  |  |  | 1910 | 
6 | 0.74 | 1.88 | 2.55 | 4.38 |  |  |  |  |  |  | 1.83 | 2.09 | Cc1ccc(C(=O)N(CCCN)[C@@H](c2oc3cc(Cl)ccc3c(=O)c2Cc2ccccc2)C(C)C)cc1 | 0.24 |  |  |  | 2.34 |  |  | 4.05 | EC50, CellTiter-Blue viability (MFM-223 [29]): 3.75 nM; EC50, CellTiter-Blue viability (CAL-51 [35]): 6.53 nM; EC50, CellTiter-Blue viability (DU-4475 [36]): 8.62 nM; EC50, CellTiter-Blue viability (CAL-85-1 [13]): 4.95 nM
7 |  |  |  |  | 254 |  |  |  | 165 |  |  |  | C=C(c1ccc(C(=O)O)cc1)c1cc2c(cc1C)C(C)(C)CCC2(C)C [Bexarotene] |  |  |  |  |  |  |  |  | 
8 | 785 | 1810 | 2610 |  | 1210 | 977 | 3990 | 1730 | 1150 | 2810 | 224 | 1600 | COc1cc([C@@H]2c3cc4c(cc3[C@@H](O[C@@H]3O[C@@H]5CO[C@@H](C)O[C@H]5[C@H](O)[C@H]3O)[C@H]3COC(=O)[C@H]23)OCO4)cc(OC)c1O [Etoposide] | 1090 | 1550 | 9970 |  | 775 | 624 | 7710 | 3040 | EC50, CellTiter-Blue viability (HCC1599 [4]): 1700 nM; EC50, CellTiter-Glo (CAL-148 [6]): 980 nM; EC50, CellTiter-Glo (MDA-MB-231 [18]): 1850 nM; EC50, CellTiter-Glo (Hs578T [19]): 1490 nM; EC50, CellTiter-Glo (DU-4475 [34]): 1260 nM; EC50, CellTiter-Glo (HCC1143 [24]): 1650 nM; EC50, CellTiter-Blue viability (CAL-51 [35]): 367 nM; EC50, CellTiter-Blue viability (DU-4475 [36]): 180 nM; EC50, CellTiter-Blue viability (CAL-85-1 [13]): 2550 nM; EC50, CellTox Green (CAL-148 [39]): 3020 nM; EC50, CellTox Green (Hs578T [27]): 55.8 nM; EC50, CellTox Green (MDA-MB-468 [28]): 2330 nM; EC50, CellTox Green (DU-4475 [40]): 3830 nM; EC50, CellTox Green (CAL-120 [41]): 3670 nM
9 |  |  |  |  | 8750 |  | 7350 | 1730 | 3820 | 3650 |  |  | O=C(CCCCCCC(=O)Nc1ccc([C@H]2O[C@@H](CSc3nc(-c4ccccc4)c(-c4ccccc4)o3)C[C@@H](c3ccc(CO)cc3)O2)cc1)NO [Tubacin] | 4570 | 1610 | 2080 | 3460 |  | 2070 | 3160 |  | EC50, CellTiter-Glo (CAL-148 [6]): 2900 nM; EC50, CellTiter-Glo (MFM-223 [33]): 3590 nM; EC50, CellTiter-Glo (MDA-MB-231 [18]): 2430 nM; EC50, CellTiter-Glo (HCC1937 [21]): 4670 nM; EC50, CellTiter-Glo (DU-4475 [34]): 1480 nM; EC50, CellTiter-Glo (MDA-MB-453 [22]): 1750 nM; EC50, CellTiter-Glo (HCC1143 [24]): 6400 nM; EC50, CellTox Green (MDA-MB-231 [26]): 2010 nM; EC50, CellTox Green (HCC1937 [42]): 124 nM; EC50, CellTox Green (MDA-MB-453 [43]): 8370 nM; EC50, CellTox Green (HCC1143 [44]): 6850 nM; EC50, CellTox Green (BT-474 [45]): 1880 nM
